Data: patent US20080118580A1, “ADHESION INHIBITION OF FUNGI” (priority 2001, published 2008)

Key:
C. albicans = assay: Growth test; assay type: cell-based, Candida albicans; conditions: for Growth rate: YPD medium, 30° C., over 10 hours, reference 0.55
Description: The growth rates were measured over 10 hours in the YPD medium already described above. The optical density was initially set at 0.1 OD and the cultures were incubated at 30° C.
Here it was assumed that an optical density of 1 measured at wavelength 600 nm corresponds to about 10^7 cells.

[1] = test system: Candida albicans strain SC5314; assay: Test for inhibition of the formation of hyphae; assay type: cell-based; conditions: for hyphae formation (in words): at the concentrations used
Description: An initial culture of the Candida albicans strain SC5314 was grown overnight in minimal medium (0.67% yeast nitrogen base w/o amino acids (Difco), 2% glucose) up to an optical density of 1 at 600 nm, and washed once in sterile double-distilled H2O. For the induction of hyphae, 100 μl to 900 μl of YPS (1% yeast extract, 2% peptone, 10% horse serum (Sigma)) were added, and incubated at 37° C. with shaking. To test the inhibitory action of different substances, farnesol (50 μl/l), propolis extract (200 ppm in ethanolic solution, Sigma, P 5182, origin: Alsace, France) or fucoidan (2 mg/ml, Sigma, F 5631) were added to the medium. A culture of 100 μl of cell suspension in 900 μl of YPD medium (1% yeast extract, 2% peptone, 2% glucose) which was incubated at 30° C. with shaking was used as the control. To quantify the formation of hyphae, 2×100 cells were counted under the microscope (Zeiss Axioscope) every 20 min. and the germ tubes formed calculated as a percentage of the total cells.

Candida albicans = assay: Wash tests, contamination with Candida albicans; assay type: cell-based; conditions: addition of farnesol to detergent, versus same detergent without
Description: The wash tests were performed in standard domestic washing machines (Miele W 918 Novotronic), which had previously been disinfected, in the delicates program at 30° C. The fungal cells were applied onto textile supports (polyamid, 2.5×2.5 cm) (2×10^5 cells/microbe support) and washed together with 3.5 kg of disinfected fill laundry with the detergent formulae. As the control, the wash was performed with the same detergent without farnesol. After the washing and drying in the air, both the residual microbial burden and also the microbial transfer to other, sterile textiles were determined.
The experiments were performed with the detergents A (addition of farnesol) and B (reference).
75 ml of the liquid detergent is added; this corresponds to a farnesol concentration of 20 ppm in the wash liquor.

[2] = test system: C. albicans culture (strain SC5314); assay: Adhesion test on textiles (tetrazolium blue staining, relative light reflection); assay type: cell-based, Candida albicans
Description: For assessment of the inhibitory action of different substances on the adhesion of fungi, a procedure with which this adhesion to textiles can be determined semi-quantitatively was developed.
A 50 ml C. albicans culture (strain SC5314) was grown overnight with shaking in a conical flask at 30° C. up to an optical density (OD) of ca. 1 (measured at 600 nm with a spectrophotometer). After washing once in water, the cells were again incubated for one hour at 30° C. with shaking. Next, 2.5 ml of the culture were diluted in 22.5 ml of YPD medium (1% yeast extract, 2% peptone, 2% glucose) or YPS medium (1% yeast extract, 2% peptone, 10% horse serum). The YPD cultures were incubated with shaking for 2 hours at 30° C., and the YPS cultures for 2 hours at 37° C. for the induction of hyphae.
As desired, test substance was added to the media. In addition a 2.5×2.5 cm piece of test fabric (polyester microfibers) was added to the media. After incubation, the textile pieces were washed three times with wash liquor (Perwoll powder, 12 ml/l water) and twice with water (5 min. with shaking each time), then transferred to a 6-well plate and covered with a layer of YPD-tetrazolium blue agar (1% yeast extract, 2% peptone, 2% glucose, 1.5% agar, 0.5 mg/ml tetrazolium blue chloride).
The depth of the blue coloration due to enzymatic conversion of the dyestuff tetrazolium blue chloride (3,3′-[3,3′-dimethoxy(1,1′-biphenyl)-4,4′-diyl]-bis-[2,5-diphenyl-2H-tetrazolium] dichloride (Sigma, T4375) by cellular dehydrogenases of adhered C. albicans served as a measure for the number of adhered Candida cells and was measured by measurement of the relative light reflection (measurement geometry d/8°) with a differential calorimeter (Dr. Lange Micro Color). The instrument was calibrated in accordance with the manufacturer's instructions. For this, the textile patches were dissolved out from the agar and subjected to the measurement with the differential calorimeter. In accordance with DIN 5033, the differential calorimeter determines the diffuse reflection of the samples at an angle of 8°.

[3] = description, no concentration given

fucoidan
cell growth (in words) (C. albicans; [3]): not affected
Number of hyphal cells formed ([1]; YPS + fucoidan 0.2 wt. %, t 0 min, YPS alone 0): 0
Number of hyphal cells formed ([1]; YPS + fucoidan 0.2 wt. %, t 20 min, YPS alone 0): 0
Number of hyphal cells formed ([1]; YPS + fucoidan 0.2 wt. %, t 40 min, YPS alone 15): 4
Number of hyphal cells formed ([1]; YPS + fucoidan 0.2 wt. %, t 60 min, YPS alone 75): 25
hyphae formation (in words) [1]: marked reduction
formation of hyphae by Candida albicans (in words) [1, 3]: significantly reduced

CC(C)=CCCC(C)=CCCC(C)=CCO [Farnesol, farnesol]
cross contamination of other laundry items (in words) (Candida albicans): completely prevented
residual microbial burden (in words) (Candida albicans): drastically reduced
Growth rate (C. albicans; 0.0025 wt. %): 0.51 h⁻¹
Number of hyphal cells formed ([1]; YPS + farnesol 0.005 wt. %, t 0 min, 37° C., YPS alone 0): 0
Number of hyphal cells formed ([1]; YPS + farnesol 0.005 wt. %, t 20 min, YPS alone 0): 0
Number of hyphal cells formed ([1]; YPS + farnesol 0.005 wt. %, t 40 min, YPS alone 15): 0
Number of hyphal cells formed ([1]; YPS + farnesol 0.005 wt. %, t 60 min, YPS alone 75): 3
hyphae formation (in words) [1]: essentially complete prevention
Relative light reflection ([2]; 0.0025 wt. % test substance, polyester microfiber fabric, higher reflection = fewer adhered cells (YPD reference 48.7, YPS 44.7)): 49.3
adhesion of fungi to textiles (in words) ([2]; concentrations of Table 1): reduction in the adhesion of fungi to textiles down to almost complete inhibition of the adhesion
adhesion of fungal cells to surfaces (in words) ([2]; in solutions which contain the substance): scarcely or not at all

CCO [Ethanol]
Growth rate (C. albicans; 2 wt. %): 0.5 h⁻¹

CC=Cc1ccc(OC)cc1 [Anethole, 1-methoxy-4-(1-propenyl)benzene]
Effective inhibitory concentration (hyphae formation inhibiting concentration) [1]: 0.10% wt. %

CC(C)=CCC/C(C)=C/CO [Geraniol, geraniol]
Effective inhibitory concentration (hyphae formation inhibiting concentration) [1]: 0.01% wt. %

O=C(O)/C=C/c1ccccc1 [Trans-cinnamic acid, trans-cinnamic acid]
Effective inhibitory concentration (hyphae formation inhibiting concentration) [1]: 0.01% wt. %
